Assays:
[1] = Inhibition of calf DNA primase of polymerase alpha assessed as inhibition of incorporation of dTTP into poly(dA)/oligo(dT)18 after 60 mins; set-up: species or system Bos taurus
[2] = target: Human immunodeficiency virus type 1 reverse transcriptase (Human immunodeficiency virus 1, UniProt Q72547); experiment: Inhibition of HIV-1 reverse transcriptase assessed as inhibition of incorporation of dTTP into poly(rA)/oligo(dT)18 after 60 mins
[3] = Inhibition of Escherichia coli polymerase DNA polymerase 1 klenow fragment assessed as inhibition of incorporation of dTTP into poly(dA)/oligo(dT)18 after 60 mins
DNA polymerase kappa = target: T1, DNA polymerase kappa (Homo sapiens, UniProt Q9UBT6); experiment: Inhibition of C-terminal His-6-tagged human DNA polymerase kappa expressed in Escherichia coli assessed as inhibition of incorporation of dTTP into poly(dA)/oligo(dT)18 after 60 mins
T1 sequence (Q9UBT6 whole entry): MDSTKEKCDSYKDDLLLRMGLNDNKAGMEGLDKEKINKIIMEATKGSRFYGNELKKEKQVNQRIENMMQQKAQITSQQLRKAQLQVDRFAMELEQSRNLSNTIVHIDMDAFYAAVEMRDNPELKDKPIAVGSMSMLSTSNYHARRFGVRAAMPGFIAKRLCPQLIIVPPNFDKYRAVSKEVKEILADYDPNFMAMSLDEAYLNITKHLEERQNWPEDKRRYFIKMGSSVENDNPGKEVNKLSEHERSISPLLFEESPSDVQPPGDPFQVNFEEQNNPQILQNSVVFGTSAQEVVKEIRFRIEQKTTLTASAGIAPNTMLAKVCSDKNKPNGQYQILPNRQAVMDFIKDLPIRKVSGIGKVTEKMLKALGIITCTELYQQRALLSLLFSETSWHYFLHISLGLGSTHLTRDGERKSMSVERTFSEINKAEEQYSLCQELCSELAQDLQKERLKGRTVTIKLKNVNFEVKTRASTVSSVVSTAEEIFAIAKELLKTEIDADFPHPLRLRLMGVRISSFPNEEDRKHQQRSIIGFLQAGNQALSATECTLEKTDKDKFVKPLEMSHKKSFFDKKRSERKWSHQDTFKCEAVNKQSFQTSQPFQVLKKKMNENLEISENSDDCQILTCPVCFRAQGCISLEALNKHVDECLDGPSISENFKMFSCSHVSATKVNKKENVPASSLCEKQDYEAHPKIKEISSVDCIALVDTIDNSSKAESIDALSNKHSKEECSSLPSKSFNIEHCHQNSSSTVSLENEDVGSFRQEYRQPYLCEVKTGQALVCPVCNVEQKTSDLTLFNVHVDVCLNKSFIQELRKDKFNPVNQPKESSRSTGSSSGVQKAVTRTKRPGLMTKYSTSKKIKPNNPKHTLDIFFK

[4] = target: DNA nucleotidylexotransferase (Bos taurus, UniProt P06526); experiment: Inhibition of calf thymus TdT assessed as inhibition of incorporation of dTTP into oligo(dT)18(3'OH) after 60 mins
[5] = target: T2, DNA polymerase delta catalytic subunit (Homo sapiens, UniProt P28340); experiment: Inhibition of DNA polymerase delta isolated from human MOLT4 cells assessed as inhibition of incorporation of dTTP into poly(dA)/oligo(dT)18 after 60 mins; format: cell-free, MOLT-4
T2 sequence (P28340 whole entry): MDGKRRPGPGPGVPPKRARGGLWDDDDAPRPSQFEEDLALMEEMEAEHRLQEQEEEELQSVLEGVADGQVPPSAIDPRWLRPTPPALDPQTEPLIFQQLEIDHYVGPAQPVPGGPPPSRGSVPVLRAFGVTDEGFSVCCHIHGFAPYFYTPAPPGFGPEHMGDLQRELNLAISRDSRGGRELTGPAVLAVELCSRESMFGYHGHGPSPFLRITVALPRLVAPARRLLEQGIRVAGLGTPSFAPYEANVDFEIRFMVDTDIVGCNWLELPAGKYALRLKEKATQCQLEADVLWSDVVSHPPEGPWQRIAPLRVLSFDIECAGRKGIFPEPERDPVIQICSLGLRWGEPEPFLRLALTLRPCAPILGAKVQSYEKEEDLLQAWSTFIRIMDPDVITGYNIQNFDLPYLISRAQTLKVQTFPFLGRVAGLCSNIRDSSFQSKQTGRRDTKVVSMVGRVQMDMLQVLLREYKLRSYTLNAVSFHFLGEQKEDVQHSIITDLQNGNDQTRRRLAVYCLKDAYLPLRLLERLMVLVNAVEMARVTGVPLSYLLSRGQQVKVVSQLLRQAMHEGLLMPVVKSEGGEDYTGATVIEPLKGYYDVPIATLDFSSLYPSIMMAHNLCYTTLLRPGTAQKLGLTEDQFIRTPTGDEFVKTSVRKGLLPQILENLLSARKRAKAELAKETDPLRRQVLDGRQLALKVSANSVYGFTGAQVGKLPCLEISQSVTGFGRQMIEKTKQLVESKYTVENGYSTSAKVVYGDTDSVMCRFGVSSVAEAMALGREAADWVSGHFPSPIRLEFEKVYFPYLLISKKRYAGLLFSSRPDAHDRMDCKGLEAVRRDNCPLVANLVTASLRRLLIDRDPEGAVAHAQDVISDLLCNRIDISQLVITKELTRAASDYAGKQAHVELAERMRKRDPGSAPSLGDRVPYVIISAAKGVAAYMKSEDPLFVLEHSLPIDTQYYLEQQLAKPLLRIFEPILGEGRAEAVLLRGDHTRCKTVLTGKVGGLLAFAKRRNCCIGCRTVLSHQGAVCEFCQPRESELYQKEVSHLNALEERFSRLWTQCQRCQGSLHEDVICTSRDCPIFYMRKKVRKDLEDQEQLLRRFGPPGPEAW

Measured: IC50

Chain of DNA nucleotidylexotransferase (P06526 whole entry): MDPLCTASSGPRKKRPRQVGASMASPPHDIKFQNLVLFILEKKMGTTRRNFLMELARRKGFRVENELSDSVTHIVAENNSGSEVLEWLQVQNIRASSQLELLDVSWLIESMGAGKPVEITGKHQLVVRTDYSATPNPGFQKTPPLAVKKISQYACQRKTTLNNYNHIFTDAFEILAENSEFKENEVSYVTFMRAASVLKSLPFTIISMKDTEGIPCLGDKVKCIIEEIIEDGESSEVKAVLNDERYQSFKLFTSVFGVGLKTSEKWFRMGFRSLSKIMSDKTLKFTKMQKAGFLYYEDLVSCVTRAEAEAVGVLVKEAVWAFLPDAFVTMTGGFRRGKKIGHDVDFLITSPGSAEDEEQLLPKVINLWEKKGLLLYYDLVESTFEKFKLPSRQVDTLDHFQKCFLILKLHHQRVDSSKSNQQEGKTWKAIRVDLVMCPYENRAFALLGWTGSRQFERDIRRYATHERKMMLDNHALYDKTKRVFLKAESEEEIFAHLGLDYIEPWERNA

CCCC[C@@H](O)/C=C(C)/C=C/C=C\C(=O)N1CCCC1=O
> 200 µM: [1] | [2] | [3] | DNA polymerase kappa | [4] | [5]

CCCCC(=O)/C=C(C)/C=C/CCC(=O)N1CCCC1=O
> 200 µM: [1] | [2] | [3] | DNA polymerase kappa | [4] | [5]

CCCC[C@@H](O)/C=C(C)/C=C/C=C/C(=O)N1CCCC1=O [PECILOCIN]
> 200 µM: [1] | [2] | [3] | DNA polymerase kappa | [4] | [5]

CC(/C=C/CCC(=O)N1CCCC1=O)=C\C1CCCCO1 (centres undefined)
> 200 µM: [1] | [2] | [3] | DNA polymerase kappa | [4] | [5]

Reference: ChEMBL document CHEMBL3124747, “Formosusin A, a novel specific inhibitor of mammalian DNA polymerase β from the fungus Paecilomyces formosus” (Bioorg Med Chem, 2014)
